Test results published in patent US4863914A, “Penem derivatives” (Farmitalia Carlo Erba, priority 1985, dated 1989).
≈ marks a conversion by molar mass, not a printed value. Like-named read-outs stand apart in the source and are kept apart here.

Assays:
S. pyogenes ATCC 12384 = assay: In-vitro antibacterial activity, agar dilution technique; format: cell-based; conditions: Streptococcus pyogenes
From the text: (§1) In-Vitro Antibacterial Activity (γ/ml)
(§2) Against Gram-positive And Gram-negative bacteria
(§3) As Determined By The Agar Dilution Technique

[1] = test system: Proteus morganii ATCC 25830; assay: as above; format: cell-based; conditions: Morganella morganii, ATCC25830
From the text: as §1, §2, §3

[2] = test system: E. coli 026:B6 cef R (IV); assay: as above; format: cell-based; conditions: Escherichia coli
From the text: as §1, §2, §3

[3] = test system: Staphylococcus aureus Smith; assay: as above; format: cell-based
From the text: as §1, §2, §3

K. aerogenes 1082 E = assay: as above; format: cell-based; conditions: Klebsiella aerogenes
From the text: as §1, §2, §3

S. Aureus 209 P = assay: as above; format: cell-based; conditions: Staphylococcus aureus
From the text: as §1, §2, §3

S. Epidermidis = assay: as above; format: cell-based; conditions: Staphylococcus epidermidis
From the text: as §1, §2, §3

[4] = test system: Klebsiella aerogenes 1522 E; assay: as above; format: cell-based
From the text: as §1, §2, §3

P. rettgeri ATCC 9250 = assay: as above; format: cell-based; conditions: Providencia rettgeri, ATCC9250
From the text: as §1, §2, §3

[5] = test system: Pseudomonas aeruginosa 2598; assay: as above; format: cell-based
From the text: as §1, §2, §3

Escherichia coli 026:B6 = assay: as above; format: cell-based
From the text: as §1, §2, §3

[6] = test system: Streptococcus faecalis (4 Strains); assay: as above; format: cell-based; conditions: Enterococcus faecalis
From the text: as §1, §2, §3

[7] = Plasma half-life after a single intravenous dose in the mouse; format: in vivo; conditions: 10 mg/kg, single intravenous dose 10 mg/kg, two compartments open model
Description: | ^(1) Determined after a single intravenous dose (10 mg/kg) in the | mouse; the plasma concentration vs. time data were best described | according to a two compartments open model with the tabulated

[8] = test system: Serratia marcescens ATCC 2902; assay: In-vitro antibacterial activity, agar dilution technique; format: cell-based
From the text: as §1, §2, §3

[9] = test system: Citrobacter Freundii ATCC 8090; assay: as above; format: cell-based; conditions: ATCC8090
From the text: as §1, §2, §3

Escherichia coli G = assay: Experimental infections in mice (intraperitoneal); format: in vivo; conditions: 6 h, E. coli G, intraperitoneal infection in mice, 3 × LD50 challenge, treatments at 30, 90, 360 minutes, read-out: ED50 (cumulative dose)
Description: (§4) ^(2) Intraperitoneal infection in mice with a 3 × LD50
(§5) challenge; treatments at 30 minutes after infection for S. aureus and 30,
(§6) 90, 360 minutes for E. coli and K. pneumoniae.

[10] = test system: Klebsiella pneumoniae FI 5724; assay: Experimental infections in mice (intraperitoneal); format: in vivo; conditions: FI5724, 6 h, K. pneumoniae FI 5724, intraperitoneal infection in mice, 3 × LD50 challenge, treatments at 30, 90, 360 minutes, read-out: ED50 (cumulative dose)
Description: as §4, §5, §6

[11] = test system: Staphylococcus aureus Smith; assay: Experimental infections in mice (intraperitoneal); format: in vivo; conditions: 0.5 h, S. aureus Smith, intraperitoneal infection in mice, 3 × LD50 challenge, treatment at 30 minutes after infection, read-out: ED50 (cumulative dose)
Description: as §4, §5, §6

[12] = ATCC12384, S. pyogenes ATCC 12384, agar dilution technique, read-out: In-Vitro Antibacterial Activity

| Structure (SMILES) | MIC [1] [mg/L] | MIC [2] [mg/L] | MIC [3] [mg/L] | MIC (K. aerogenes 1082 E) [mg/L] | MIC (S. Aureus 209 P) [mg/L] | MIC (S. Epidermidis) [mg/L] | MIC [4] [mg/L] | MIC (P. rettgeri ATCC 9250) [mg/L] | MIC [5] [mg/L] | MIC (Escherichia coli 026:B6) [mg/L] | MIC [6] [mg/L] | MIC (S. pyogenes ATCC 12384; [12]) [mg/L] | MIC [9] [mg/L] | other results |
| --- | --- | --- | --- | --- | --- | --- | --- | --- | --- | --- | --- | --- | --- | --- |
| CO/N=C(\C(=O)N[C@@H]1C(=O)N2C(C(=O)O)=C(COC(C)=O)CS[C@H]12)c1csc(N)n1 [Cefotaxime] | 0.037 (≈ 0.0812 µM) | 1.25 (≈ 2.74 µM) | 0.77 (≈ 1.69 µM) | 6.25 (≈ 13.7 µM) | 1.56 (≈ 3.43 µM) | 6.25 (≈ 13.7 µM) | 0.095 (≈ 0.209 µM) | 0.018 (≈ 0.0395 µM) | 25 (≈ 54.9 µM) | 0.38 (≈ 0.834 µM) | 10 (≈ 22 µM) | – | – | MIC (S. pyogenes ATCC 12384; ATCC12384, read-out: In-Vitro Antibacterial Activity): 1.25 mg/L (≈ 2.74 µM) |
| C[C@@H](O)[C@H]1C(=O)N2C(C(=O)[O-])=C(c3ccc(C[n+]4ccccc4)cc3)S[C@H]12 [Compound 5, (5R,6S)-6-[(1R)-hydroxyethyl]-2-[4-(pyridiniomethyl)phenyl]penem-3-carboxylate] | 0.38 (≈ 0.994 µM) | 0.38 (≈ 0.994 µM) | 0.011 (≈ 0.0288 µM) | 0.38 (≈ 0.994 µM) | 0.005 (≈ 0.0131 µM) | 0.19 (≈ 0.497 µM) | 0.38 (≈ 0.994 µM) | 0.38 (≈ 0.994 µM) | 25 (≈ 65.4 µM) | 0.19 (≈ 0.497 µM) | 0.06 (≈ 0.157 µM) | 0.011 (≈ 0.0288 µM) | 0.19 (≈ 0.497 µM) | half-life ([7]; read-out: Plasma half-life t1/2 α): 5 min; half-life ([7]; read-out: Plasma half-life t1/2 β): 15 min; MIC ([8]; ATCC2902, Serratia marcescens ATCC 2902, agar dilution technique, read-out: In-Vitro Antibacterial Activity): 0.76 mg/L (≈ 1.99 µM); ED50 (Escherichia coli G): 0.5 mg/kg; ED50 [10]: 0.8 mg/kg; ED50 [11]: 0.06 mg/kg |
| CC(=O)OCC1=C(C(=O)O)N2C(=O)C(C(C)O)C2S1 (stereo not drawn) [FCE 21420] | 1.52 (≈ 5.29 µM) | 3.12 (≈ 10.9 µM) | 0.046 (≈ 0.16 µM) | 0.76 (≈ 2.65 µM) | 0.046 (≈ 0.16 µM) | 0.76 (≈ 2.65 µM) | 1.55 (≈ 5.4 µM) | 1.52 (≈ 5.29 µM) | 100 (≈ 348 µM) | 0.76 (≈ 2.65 µM) | 0.1 (≈ 0.348 µM) | 0.046 (≈ 0.16 µM) | 1.52 (≈ 5.29 µM) | MIC ([8]; Serratia marcescens, ATCC2902, read-out: In-Vitro Antibacterial Activity): 3.12 mg/L (≈ 10.9 µM) |
